Consider 15 compounds from patent publication US5594022A, “Tachykinin antagonists” (Warner-Lambert Company, priority 1994, dated 1997).

Entries after “also recorded” stand apart in the source; their conditions may differ. Structures can show the parent of a compound that is named as a salt. Where two headings read alike, the source gives them in different places.

Experiment [1] addresses T1, NK1 receptor (Cavia porcellus, UniProt P30547).
T1 construct: guinea pig cerebral cortex membranes; from tissue; host or cells: guinea pig cerebral cortex membranes
The experiment in a line: Guinea pig plasma extravasation (antagonism of SPOMe-induced plasma protein extravasation in the bladder). The format is in vivo. To be noted: read-out: ID50, Guinea Pig Plasma Extravasation.

In experiment [2] the target is T2, NK1 receptor (Guinea Pig Ileum) (Cavia porcellus, UniProt P30547).
T2 construct: Ileum; from tissue; host or cells: guinea pig ileum
T2 sequence (P30547 whole entry): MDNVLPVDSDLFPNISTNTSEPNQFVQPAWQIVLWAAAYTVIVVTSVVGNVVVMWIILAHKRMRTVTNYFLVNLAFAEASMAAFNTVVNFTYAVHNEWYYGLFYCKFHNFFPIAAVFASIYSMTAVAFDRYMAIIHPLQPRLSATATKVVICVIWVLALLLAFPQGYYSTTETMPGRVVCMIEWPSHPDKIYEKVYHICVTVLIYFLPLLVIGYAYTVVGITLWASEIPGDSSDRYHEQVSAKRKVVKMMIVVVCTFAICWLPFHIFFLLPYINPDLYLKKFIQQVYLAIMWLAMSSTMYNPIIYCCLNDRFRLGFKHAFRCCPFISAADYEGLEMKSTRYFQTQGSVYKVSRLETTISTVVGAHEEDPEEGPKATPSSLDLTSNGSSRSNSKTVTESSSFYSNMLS
The experiment in a line: NK1 antagonist activity, guinea pig ileum. To be noted: read-out: NK1 Antagonist Activity pkB/pA2, Guinea Pig Ileum (converted).

The target in experiment [3] is T3, NK1 receptor (Guinea Pig Trachea) (Cavia porcellus, UniProt P30547).
T3 construct: Trachea; from tissue; host or cells: guinea pig trachea
T3 sequence (P30547 whole entry): as above
Nature of the experiment: NK1 antagonist activity, guinea pig trachea. As to conditions: read-out: NK1 Antagonist Activity pkB/pA2, Guinea Pig Trachea (converted).

For experiment [4], the target named is T1, NK1 receptor. Nature of the experiment: In vitro NK1 receptor binding ([125I] Bolton Hunter Substance-P, guinea pig cerebral cortex membranes). To be noted: [125I-BH]Substance-P 0.1 nM. The protocol:
The compounds of the invention were also evaluated in three tachykinin binding assays.

Another experiment relates to NK2 receptors. As to conditions: literature; cited from earlier work.
Experiment [5] concerns NK1 receptor. As to conditions: literature; cited from earlier work.
The target of experiment [6] is T1, NK1 receptor. The experiment in a line: Antagonism of substance-P methylester in a number of in vitro NK1 preparations. Also on record: species or system guinea pig. The text has this: Therefore, it could be of use in therapeutic disorders where attenuation of the NK1 receptor response is an appropriate form of intervention.
In the next experiment the test system is NK3 receptors. As to conditions: literature; cited from earlier work.
[7] abbreviates: guinea pig bladder, IV, SPOMe-induced.
Setting [8] is: Binding IC50, In Vitro NK1 Receptor Binding.
Setting [9] is: read-out: Binding IC50, In Vitro NK1 Receptor Binding.

T1 sequence (P30547 whole entry): as above

Turning to `C[C@H](NC(=O)[C@@](C)(Cc1c[nH]c2ccccc12)NC(=O)OCc1cc2ccccc2o1)c1ccncc1` [Example 66, Carbamic acid, [1-(1H-indol-3-ylmethyl)-1-methyl-2-oxo-2-[[1-(4-pyridinyl)ethyl]amino]ethyl]-, 2-benzofuranylmethyl ester, monohydrochloride, [R-(R*,S*)]], the ED50 on NK1 receptor [1] (setting [7]) amounted to 2.8 mg/kg.
Consider `Cc1ccc(COC(=O)N[C@](C)(Cc2c[nH]c3ccccc23)C(=O)N[C@@H](C)c2ccccc2)cc1` [Example 22], for which the Kb is 15.8 nM in experiment [2] and 100 nM in experiment [3]. On NK1 receptor [4] (setting [8]), this compound showed an IC50 of 17 nM. At NK1 receptor [1] (guinea pig, iv), the ED50 turned out to be 0.64 mg/kg.
Consider `CC(=O)NC1(c2ccccc2)CCN(CC[C@H](CN(C)C(=O)c2ccccc2)c2ccc(Cl)c(Cl)c2)CC1` [SR 48969], for which the “NK2 receptor affinity or selectivity, in words” value in the experiment with NK2 receptors was “high affinity and selectivity for NK2 receptors”.
As to `CN(Cc1ccccc1)C(=O)[C@H](Cc1ccc2ccccc2c1)NC(=O)[C@@H]1C[C@@H](O)CN1C(=O)c1cn(C)c2ccccc12` [FK 888], the “NK1 receptor affinity or activity, in words” value in the experiment with NK1 receptor [5] was “high affinity for the NK1 receptor”.
Consider `C[C@H](NC(=O)[C@@](C)(Cc1c[nH]c2ccccc12)NC(=O)OCc1ccccc1)c1ccccc1` [Example 15], for which the results for the Kb (in experiment [2]; in experiment [3]; on NK1 receptor [6] (read-out: pKB against substance-P methylester on these tissues (converted))) were 15.8 nM, 39.8 nM and about 10 nM, respectively. The IC50 on NK1 receptor [4] (setting [8]) stood at 36 nM. Also, the “NK1 receptor antagonism, in words” value on NK1 receptor [6] (listed as Ex. 15) is reported as “antagonist of the NK1 receptor; also recorded: tachykinin NK1 receptor antagonist”.
Consider `C[C@H](NC(=O)[C@@](C)(Cc1c[nH]c2ccccc12)NC(=O)OCc1ccccc1F)c1ccccc1` [Example 47, (2-Fluorophenyl) methyl [R-(R*,S*)]-[1-(1H-insol-3-ylmethyl)-1-methyl-2-oxo-[1-phenylethyl)amino]ethyl]carbamate], for which the Kb in experiment [2] is 3.98 nM; in experiment [3], 50.1 nM. The IC50 at NK1 receptor [4] (setting [8]) stood at 10 nM. Also, the ED50 on NK1 receptor [1] (guinea pig, iv) came out at 0.13 mg/kg.
Consider `COc1ccccc1CC(=N)N1C[C@@H]2C(=O)CCC(c3ccccc3)(c3ccccc3)[C@@H]2C1` [RP 67580], for which, in the experiment on NK1 receptor [5], the “NK1 receptor affinity or activity, in words” value was “antagonists at the NK1 receptor”.
Regarding `C[C@H](NC(=O)[C@@](C)(Cc1c[nH]c2ccccc12)NC(=O)OCc1ccc(F)cc1F)c1ccccc1` [Example 53, (2,4-Difluorophenyl) methyl [R-(R*,S*)]-[1-(1H-indol-3-ylmethyl)-1-methyl-2-oxo-2-[(1-phenylethyl)amino]ethyl]carbamate], the values for the Kb in experiment [2] and in experiment [3] were 2.51 nM and 7.94 nM, respectively. Also, at NK1 receptor [4] (setting [8]), the IC50 worked out at 39 nM. In addition, on NK1 receptor [1] (guinea pig, iv), the ED50 was found to be 0.071 mg/kg.
As to `COc1ccccc1CN[C@H]1C2CCN(CC2)[C@H]1C(c1ccccc1)c1ccccc1` [CP-96,345], in the experiment with NK1 receptor [5], the “NK1 receptor affinity or activity, in words” value was “antagonists at the NK1 receptor”.
Take `CN(Cc1ccccc1)C(=O)[C@H](Cc1c[nH]c2ccccc12)NC(=O)OCc1cc2ccccc2o1` [Example 67, Carbamic acid, [1-(1H-indol-3-ylmethyl)-2-[methyl (phenylmethyl)amino]-2-oxoethyl]-, 2-benzofuranylmethyl ester, (S)--]: the Kb in experiment [2] was 12.6 nM. For the same compound, on NK1 receptor [1] (setting [7]), the ED50 turned out to be 0.91 mg/kg.
As to NKB: mammalian tachykinin neuropeptide, the “NK3 receptor binding, in words” value in the experiment on NK3 receptors is listed as “bind preferentially”.
As for NKA: mammalian tachykinin neuropeptide, in the experiment with NK2 receptors, the “NK2 receptor affinity or selectivity, in words” value is “bind preferentially to NK2”.
With `O=C(N[C@@H](Cc1c[nH]c2ccccc12)C(=O)OCc1cc(C(F)(F)F)cc(C(F)(F)F)c1)OCc1ccccc1` [Example 35, Methyl N-[(phenylmethoxy)carbonyl]-, [3,5-bis(trifluoromethyl)phenyl]-L-tryptophan], the IC50 on NK1 receptor [4] (setting [9]) came out at 233 nM.
Same read-out and setting: the same measure for `C[C@H](NC(=O)[C@@](C)(Cc1c[nH]c2ccccc12)NC(=O)OCc1ccsc1)c1ccccc1` [Example 42, 3-Thienylmethyl [R-(R*,S*)]-[(1H-indol-3-ylmethyl) -1-methyl-2-oxo-2-[(1-phenylethyl)amino]ethyl]carbamate]: 140 nM.
Substance-P: in the experiment with NK1 receptor [5], the “NK1 receptor affinity or activity, in words” value was “highest affinity for NK1 receptors”.
